Where two headings read alike, the source gives them in different places.
Columns and labels:
[1] = HEK 293 kidney cell viability / cytotoxicity assay (Alamar Blue); type: cell-based; conditions: human, 48 h incubation, Alamar Blue, read-out: HEK 293 Kidney Cell Viability CC50
Description: Evaluating compound effects on kidney cell viability.
HEK 293 cells were maintained in MEM medium (Corning Cellgro, 10-009 CV) supplemented with 10% FBS (Sigma, F2242). […] Cells at 80% confluence were harvested and diluted in growth medium, then 45 μL of the HEK 293 cells (1,500 cells/well) were dispensed per well, and plates were sealed with “Breathe Easy” oxygen permeable membranes (Diversified Biotech) and incubated at 37° C., 5% CO2, for 24 h. […] Plates were sealed with “Breathe Easy” oxygen permeable membranes and incubated for an additional 48 h at 37° C. and 5% CO2. The Alamar Blue reporter reagents were then added to a final concentration of 10%, the plates incubated at 37° C. and 5% CO2, and sample fluorescence (535 nm excitation, 590 nm emission) was read using a Molecular Devices FlexStation II 384-well plate reader (readings taken between 4-24 h of incubation so as to achieve signals in the 30-60% range for conversion of resazurin to resorufin). Cell viability was calculated as per vendor instructions (Thermo Fisher—Alamar Blue cell viability assay manual).

[2] = target: T1, native MDH (Sus scrofa, UniProt P00346); assay: Native MDH enzymatic activity counter-screen; type: biochemical, pig; conditions: compounds added after refolding and EDTA quench, read-out: Biochemical Assay IC50 Native MDH Activity
T1 construct: soluble pig heart MDH from Roche, product #10127248001; purchased Roche 10127248001; host or cells: pig heart
T1 sequence (P00346 25-338): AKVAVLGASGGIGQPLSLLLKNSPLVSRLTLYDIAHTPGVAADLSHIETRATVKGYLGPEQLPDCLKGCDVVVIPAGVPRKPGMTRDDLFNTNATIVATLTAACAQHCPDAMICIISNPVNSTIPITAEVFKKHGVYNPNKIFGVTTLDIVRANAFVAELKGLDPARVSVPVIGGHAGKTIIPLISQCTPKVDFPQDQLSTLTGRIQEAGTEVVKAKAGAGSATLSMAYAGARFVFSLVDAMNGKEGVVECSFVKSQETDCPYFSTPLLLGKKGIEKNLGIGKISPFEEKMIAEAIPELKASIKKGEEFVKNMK
Description: Counter-screening compounds for inhibition of native MDH enzymatic activity.
Reagent Preparations & Assay Protocol: This assay was performed as described above for the GroEL/ES-dMDH refolding assay; however, the assay protocol differed in the sequence of compound addition to the assay plates. The refolding reactions were allowed to proceed for 45 min at 37° C. in the absence of test compounds (complete refolding of MDH occurs), then quenched with the EDTA stock. Compounds were then pin-transferred into the plates after the EDTA quenching step; thus, compounds effects are only possible by inhibiting the fully-refolded MDH reporter substrate. Next enzymatic activity of the refolded MDH was initiated by addition of 20 μL MDH enzymatic assay stock (20 mM sodium mesoxalate and 2.4 mM NADH in reaction buffer, 50 mM Tris pH 7.4, 50 mM KCl, 1 mM DTT), and followed by measuring the NADH absorbance in each well at 340 nm using a Molecular Devices SpectraMax Plus384 microplate reader
A340 nm measurements were recorded at 0.5 minutes (start point) and at successive time points until the amount of NADH consumed reached ˜90% (end point, generally between 20-35 minutes). Compounds were tested in 8-point, 3-fold dilution series (62.5 μM to 29 nM during the reporter reaction) in clear, flat-bottom 384-well microtiter plates.
DMSO was used as a negative control, and previously discovered native MDH inhibitors were used as positive controls. IC50 values for the test compounds were obtained by plotting the % inhibition results in GraphPad Prism 6 and analyzing by non-linear regression using the log (inhibitor) vs. response (variable slope) equation. Results presented represent the averages of IC50 values obtained from at least quadriplicate (duplicate of duplicate) replicates.

Structure (SMILES)	CC50 at 48 h ([1]; HEK 293 kidney cells, Table 2)	IC50 ([2]; Table 2)	CC50 at 48 h ([1]; HEK 293 kidney cells, Table 3)	IC50 ([2]; Table 3)	other results
Cc1cc(C(C#N)c2ccc(Cl)cc2)c(Cl)cc1NC(=O)c1cccc(Cl)c1 (stereo not drawn) [Compound 77, 3-chloro-N-(5-chloro-4-((4-chlorophenyl)(cyano)methyl)-2-methylphenyl)benzamide]	> 100 µM	> 63 µM			
Cc1cc(C(C#N)c2ccc(Cl)cc2)c(Cl)cc1NC(=O)c1ccccc1 (stereo not drawn) [Compound 82, N-(5-chloro-4-((4-chlorophenyl)(cyano)methyl)-2-methylphenyl)benzamide]		> 63 µM			CC50 at 48 h ([1]; Table 2): 47 µM
COc1ccc(Cl)cc1C(=O)Nc1ccc(Cc2ccccc2)cc1 [Compound 98, N-(4-benzylphenyl)-5-chloro-2-methoxybenzamide]			> 100 µM	> 63 µM	
COc1ccc(Cl)cc1C(=O)Nc1ccc(Oc2ccccc2)cc1 [Compound 92, 5-chloro-2-methoxy-N-(4-phenoxyphenyl)benzamide]			> 100 µM	> 63 µM	
Cc1cc(C(C#N)c2ccc(Cl)cc2)c(Cl)cc1NC(=O)c1cccc(O)c1 (stereo not drawn) [Compound 65, N-(5-chloro-4-((4-chlorophenyl)(cyano)methyl)-2-methylphenyl)-3-hydroxybenzamide]	44 µM	> 63 µM			
O=C(Nc1ccc(Sc2nc3ccccc3s2)cc1)c1cc(Cl)ccc1O [Compound 97, N-(4-(benzo[d]thiazol-2-ylthio)phenyl)-5-chloro-2-hydroxybenzamide]			28 µM	> 63 µM	
Cc1cc(C(C#N)c2ccc(Cl)cc2)c(Cl)cc1NC(=O)c1cc(Br)cc(Br)c1O (stereo not drawn) [Compound 46, 3,5-dibromo-N-(5-chloro-4-((4-chlorophenyl)(cyano)methyl)-2-methylphenyl)-2-hydroxybenzamide]		2.3 µM			CC50 at 48 h ([1]; Table 2): 58 µM
CC(=O)Nc1ccc(NC(=O)c2cc(Cl)ccc2O)cc1 [Compound 105, N-(4-acetamidophenyl)-5-chloro-2-hydroxybenzamide]			69 µM	> 63 µM	
Cc1cc(C(C#N)c2ccc(Cl)cc2)c(Cl)cc1NC(=O)c1ccccc1Br (stereo not drawn) [Compound 73, 2-bromo-N-(5-chloro-4-((4-chlorophenyl)(cyano)methyl)-2-methylphenyl)benzamide]		> 63 µM			CC50 at 48 h ([1]; Table 2): > 100 µM
COc1ccc(Cl)cc1C(=O)Nc1ccc(CC#N)cc1 [Compound 110, 5-chloro-N-(4-(cyanomethyl)phenyl)-2-methoxybenzamide]			> 100 µM	> 63 µM	
Cc1cc(C(C#N)c2ccc(Cl)cc2)c(Cl)cc1NC(=O)c1cc(Cl)cc(Cl)c1O (stereo not drawn) [Compound 52, 3,5-dichloro-N-(5-chloro-4-((4-chlorophenyl)(cyano)methyl)-2-methylphenyl)-2-hydroxybenzamide]	44 µM	5.5 µM			
Cc1cc(C(C#N)c2ccc(Cl)cc2)c(Cl)cc1NC(=O)c1ccc(O)cc1 (stereo not drawn) [Compound 66, N-(5-chloro-4-((4-chlorophenyl)(cyano)methyl)-2-methylphenyl)-4-hydroxybenzamide]	65 µM	> 63 µM			
COc1ccc(NC(=O)c2cc(Cl)ccc2O)cc1 [Compound 113, 5-chloro-2-hydroxy-N-(4-methoxyphenyl)benzamide]			19 µM	> 63 µM	
CC(=O)Nc1cc(Cl)c(C(C#N)c2ccc(Cl)cc2)cc1C (stereo not drawn) [Compound 83, N-(5-chloro-4-((4-chlorophenyl)(cyano)methyl)-2-methylphenyl)acetamide]	83 µM	> 63 µM			
O=C(Nc1ccccc1)c1cc(Cl)ccc1O [Compound 117, 5-chloro-2-hydroxy-N-phenylbenzamide]			13 µM	> 63 µM	
COc1ccc(Cl)cc1C(=O)Nc1ccc(C(C#N)c2ccccc2)cc1 (stereo not drawn) [Compound 84, 5-chloro-N-(4-(cyano(phenyl)methyl)phenyl)-2-methoxybenzamide]			> 100 µM	> 63 µM	
O=C(Nc1ccc(Cc2ccccc2)cc1)c1cc(Cl)ccc1O [Compound 99, N-(4-benzylphenyl)-5-chloro-2-hydroxybenzamide]				> 63 µM	CC50 at 48 h ([1]; Table 3): 19 µM
COc1ccc(Cl)cc1C(=O)Nc1ccc(CCc2ccccc2)cc1 [Compound 100, 5-chloro-2-methoxy-N-(4-phenethylphenyl)benzamide]			> 100 µM	> 63 µM	
Cc1cc(C(C#N)c2ccc(Cl)cc2)c(Cl)cc1NC(=O)c1cccc(Br)c1O (stereo not drawn) [Compound 48, 3-bromo-N-(5-chloro-4-((4-chlorophenyl)(cyano)methyl)-2-methylphenyl)-2-hydroxybenzamide]		48 µM			CC50 at 48 h ([1]; Table 2): 43 µM
Cc1cc(C(C#N)c2ccc(Cl)cc2)c(Cl)cc1NC(=O)c1ccc(Cl)cc1 (stereo not drawn) [Compound 78, 4-chloro-N-(5-chloro-4-((4-chlorophenyl)(cyano)methyl)-2-methylphenyl)benzamide]	50 µM	> 63 µM			
COc1cccc(C(=O)Nc2cc(Cl)c(C(C#N)c3ccc(Cl)cc3)cc2C)c1 (stereo not drawn) [Compound 62, N-(5-chloro-4-((4-chlorophenyl)(cyano)methyl)-2-methylphenyl)-3-methoxybenzamide]	50 µM	> 63 µM			
COc1ccc(Cl)cc1C(=O)Nc1ccc(NC(C)=O)cc1 [Compound 104, N-(4-acetamidophenyl)-5-chloro-2-methoxybenzamide]			> 100 µM	> 63 µM	
COC(=O)c1ccc(NC(=O)c2cc(Cl)ccc2O)cc1 [Compound 107, methyl 4-(5-chloro-2-hydroxybenzamido)benzoate]			11 µM	> 63 µM	
COc1ccc(C(=O)Nc2cc(Cl)c(C(C#N)c3ccc(Cl)cc3)cc2C)cc1 (stereo not drawn) [Compound 63, N-(5-chloro-4-((4-chlorophenyl)(cyano)methyl)-2-methylphenyl)-4-methoxybenzamide]	> 100 µM	> 63 µM			
COc1c(Br)cc(Br)cc1C(=O)Nc1cc(Cl)c(C(C#N)c2ccc(Cl)cc2)cc1C (stereo not drawn) [Compound 45, 3,5-dibromo-N-(5-chloro-4-((4-chlorophenyl)(cyano)methyl)-2-methylphenyl)-2-methoxybenzamide]		> 63 µM			CC50 at 48 h ([1]; Table 2): 66 µM
O=C(Nc1cc(Cl)cc(Cl)c1O)c1c(O)c(Cl)cc(Cl)c1Cl [Oxyclosanide, reference compound]					CC50 at 48 h ([1]; HEK 293 kidney cells, Table 1): 30 µM; IC50 ([2]; Table 1): 54 µM
O=C(Nc1ncc([N+](=O)[O-])s1)c1ccccc1O [Tizoxanide, reference compound]					CC50 at 48 h ([1]; HEK 293 kidney cells, Table 1): 31 µM; IC50 ([2]; Table 1): > 63 µM
Cc1cc(C(C#N)c2ccc(Cl)cc2)c(Cl)cc1NC(=O)c1ccccc1F (stereo not drawn) [Compound 79, N-(5-chloro-4-((4-chlorophenyl)(cyano)methyl)-2-methylphenyl)-2-fluorobenzamide]	85 µM	> 63 µM			
COc1ccc(Cl)cc1C(=O)Nc1ccc(Sc2nc3ccccc3s2)cc1 [Compound 96, N-(4-(benzo[d]thiazol-2-ylthio)phenyl)-5-chloro-2-methoxybenzamide]			56 µM	> 63 µM	
COc1ccc(Cl)cc1C(=O)Nc1ccccc1 [Compound 116, 5-chloro-2-methoxy-N-phenylbenzamide]			> 100 µM	> 63 µM	
